Measurements taken from PubChem BioAssay AID1996.
In brackets after ≈: the same amount, converted by molar mass.

Settings: buffer; pH 7.4; 200.0 µM
`CCc1sc(C(=O)N2CCN(c3ccc(F)cc3)CC2)cc1C` showed a solubility kinetic of 10.7 µg/mL (≈ 32.2 µM). In the case of `Cn1cnc2c1c(=O)n(Cc1ccc(Cl)cc1Cl)c(=O)n2C`, the solubility kinetic is reported as > 50.9 µg/mL. For `Cc1cnc(C(=O)OCC(=O)Nc2cccc(C)c2C)cn1`, the solubility kinetic was > 44.9 µg/mL. Work on `NC(=O)c1ccsc1NC(=O)Cc1ccc([N+](=O)[O-])cc1` yielded a solubility kinetic of 12 µg/mL (≈ 39.3 µM). For `COc1ccc(CNC(=O)CCN2C(=S)NC(C)(C)CC2C)cc1` (stereo not given), the solubility kinetic was > 52.4 µg/mL. `O=c1oc2ccccc2cc1-c1csc(Nc2ccc(O)cc2)n1` gave a solubility kinetic of 1.7 µg/mL (≈ 5.05 µM). With `CCC(=O)c1ccc(OCC(=O)N2CCCC2)c(OC)c1` the solubility kinetic was > 43.7 µg/mL. `CCC(=O)N(Cc1cc2cc(OC)ccc2[nH]c1=O)c1ccc(C)cc1` showed a solubility kinetic of 3 µg/mL (≈ 8.56 µM). Compound `O=C(NCC(=O)N1CCCC(C(F)(F)F)C1)c1ccc(Oc2ccccc2)cc1` (stereo not given) has a solubility kinetic of 36.3 µg/mL (≈ 89.3 µM). In the case of `CNC(=O)c1ccc(CNC(=O)OCc2ccccc2)cc1`, the solubility kinetic is reported as > 44.8 µg/mL. With `COc1ccccc1CNC(=O)c1ccc2c(c1)OCO2` the solubility kinetic was > 42.8 µg/mL. Work on `O=C(Nc1ccc(Cl)c(S(=O)(=O)N2CCOCC2)c1)c1cccs1` yielded a solubility kinetic of 3.2 µg/mL (≈ 8.27 µM). In the case of `Cc1ccc(NC(=O)CSc2ccc3c(c2)OCCO3)nc1`, the solubility kinetic is reported as > 47.5 µg/mL. Compound `COc1ccc(CCNC(=O)c2ccccc2SC)cc1` has a solubility kinetic of 27.4 µg/mL (≈ 90.9 µM). For `COc1ccccc1C(=O)Nc1ccc(Nc2ccccc2)cc1`, the solubility kinetic was < 0.3 µg/mL. With `O=C1CN(C(=O)CSc2nncs2)c2ccccc2N1` the solubility kinetic was > 46 µg/mL. Compound `COc1ccc(C)cc1NC(=O)NCCCCc1ccccc1` has a solubility kinetic of 0.4 µg/mL (≈ 1.28 µM). In the case of `O=C(COC(=O)C1CC(=O)N(Cc2ccccc2)C1)Nc1cccc([N+](=O)[O-])c1` (stereo not given), the solubility kinetic is reported as > 59.6 µg/mL. With `CNC(=O)C(NC(=O)c1ccccc1)=C(C)C` the solubility kinetic was > 34.8 µg/mL. With `CCOc1ccccc1NC(=S)NCc1cccn1C` the solubility kinetic was 38.5 µg/mL (≈ 133 µM). Compound `C/C(=N\OC(=O)Nc1ccc(Cl)cc1)c1ccc(F)c(F)c1` has a solubility kinetic of 5.2 µg/mL (≈ 16 µM). In the case of `Cc1[nH]c(=O)[nH]c(=O)c1S(=O)(=O)Nc1cccc(C(F)(F)F)c1`, the solubility kinetic is reported as > 52.4 µg/mL. In the case of `O=C(c1cnsn1)N1CCC(CO)(Cc2cccc(F)c2)CC1`, the solubility kinetic is reported as 44.4 µg/mL (≈ 132 µM). For `Cc1ccc2c(C)c(C(=O)N(C)Cc3nccn3C)oc2c1C`, the solubility kinetic was > 46.7 µg/mL. `CC(NC(=O)c1ccccc1)C(=O)NC1CCCc2ccccc21` (stereo not given) showed a solubility kinetic of 14.7 µg/mL (≈ 45.6 µM). `O=C1c2ccccc2C(=O)N1CCc1ccccc1` showed a solubility kinetic of 7.8 µg/mL (≈ 31 µM). For `Cc1cc(C)nc(NC(=O)/C=C/c2ccc(Cl)cc2)n1`, the solubility kinetic was 42.1 µg/mL (≈ 146 µM). For `COc1ccccc1-c1nc2ccc(Cl)cc2c(=O)n1O`, the solubility kinetic was > 45.4 µg/mL. For `Cc1ccccc1Nc1nc(N)nc(CSc2n[nH]c(N)n2)n1`, the solubility kinetic was > 49.4 µg/mL. `CCC(=Nc1ccccc1O)C1=C(O)CC(c2ccccc2)CC1=O` (stereo not given) showed a solubility kinetic of 39.7 µg/mL (≈ 118 µM). With `O=C(OCC(=O)N1CCCC1)c1ccc(O)cc1` the solubility kinetic was > 37.4 µg/mL. Compound `COc1ccc(NC(=O)COC(=O)c2ccc3c(c2)OCO3)c(OC)c1` has a solubility kinetic of 1.9 µg/mL (≈ 5.29 µM). In the case of `Cc1csc(=O)n1CCC(=O)OCc1nnc(-c2ccccc2Cl)o1`, the solubility kinetic is reported as > 57 µg/mL. In the case of `Cl.NS(=O)(=O)c1ccc(CCNCc2cccnc2)cc1`, the solubility kinetic is reported as 40.5 µg/mL. For `COc1ccc(OC)c(C(=O)c2coc3ccc(O)c(CN(C)C)c23)c1.Cl`, the solubility kinetic was > 58.8 µg/mL. In the case of `Cc1ccc(C(=O)CSc2nnc3n2CCCCC3)s1`, the solubility kinetic is reported as > 46.1 µg/mL. With `CC1CCN(C(=O)CN2C(=O)NC(C)(c3ccc4ccccc4c3)C2=O)CC1` (stereo not given) the solubility kinetic was 5.9 µg/mL (≈ 15.5 µM). With `Cc1ccc(C(=O)NCC(=O)NCc2ccccc2F)s1` the solubility kinetic was > 46 µg/mL. In the case of `Cc1ccc2c(C)c(C(=O)N(C)Cc3ccncn3)oc2c1C`, the solubility kinetic is reported as 32.7 µg/mL (≈ 106 µM). With `Cc1ccc(C(=O)/C=C/c2cc(C#N)n(C)c2C)cc1` the solubility kinetic was 1.2 µg/mL (≈ 4.54 µM). For `CCNC(=S)N1CCC(NC(=O)c2ccco2)CC1`, the solubility kinetic was > 42.2 µg/mL. For `O=C(COC(=O)/C=C/c1ccc(F)cc1)NC1CC1`, the solubility kinetic was 28.8 µg/mL (≈ 109 µM). Compound `COCCCNC(=O)C(=O)Nc1cc2c3c(c1)CCN3C(=O)CC2` has a solubility kinetic of 49.4 µg/mL (≈ 149 µM). `C=CCc1ccccc1OCC(O)CN1C(=O)c2ccccc2C1=O` (stereo not given) showed a solubility kinetic of 46 µg/mL (≈ 136 µM). In the case of `O=C1Nc2ccccc2C1C(C[N+](=O)[O-])c1ccccn1` (stereo not given), the solubility kinetic is reported as > 42.5 µg/mL. `COc1ccccc1Nc1nc(N)nc(CN2CC(C)CC(C)C2)n1` (stereo not given) showed a solubility kinetic of 14 µg/mL (≈ 40.9 µM). With `C=CCN1C(=O)C2(OCCO2)c2cc(C)ccc21` the solubility kinetic was > 36.8 µg/mL. In the case of `CCOC(=O)c1c(C)nc2cc(C)cc(C)n12`, the solubility kinetic is reported as 32.4 µg/mL (≈ 139 µM). In the case of `CC1CCCC(C)N1C(=O)COC(=O)CCC(=O)c1ccc(F)cc1` (stereo not given), the solubility kinetic is reported as > 52.4 µg/mL. With `CC(C)(C)Nc1nc(Cl)nc(NCCN2CCOCC2)n1` the solubility kinetic was 46.1 µg/mL (≈ 146 µM). For `Cn1cccc1C(=O)OCC(=O)NC1CCS(=O)(=O)C1` (stereo not given), the solubility kinetic was > 45 µg/mL. Compound `COc1ccc(/C=C/C2=CC(C)(C)NC(=S)N2)cc1` has a solubility kinetic of 9.4 µg/mL (≈ 34.3 µM). With `CC(=O)Nc1ccc(OCC(=O)N2CCc3ccccc3C2)cc1` the solubility kinetic was > 48.7 µg/mL. With `COc1ccccc1CCNS(=O)(=O)c1cn(C)nc1C` the solubility kinetic was > 46.4 µg/mL. In the case of `O=C1c2ccccc2C2(c3ccc(F)cc3)NCCN12` (stereo not given), the solubility kinetic is reported as > 40.2 µg/mL. `C[C@@H]1C(NC(=O)c2ccccc2)CC2CC1C2(C)C` (stereo not given in full) gave a solubility kinetic of 6.4 µg/mL (≈ 24.9 µM). With `COc1ccc(NC(=O)c2ccc(S(=O)(=O)N3CCCCC3)cc2)cc1OC` the solubility kinetic was 5.5 µg/mL (≈ 13.6 µM). Work on `COc1ccc(NC(=O)CN(C)C(=O)Cc2ccsc2)cc1` yielded a solubility kinetic of 42 µg/mL (≈ 132 µM). For `COc1ccc(C(=O)NCC(=O)OCC(=O)c2c(C)[nH]c3ccccc23)cc1OC`, the solubility kinetic was 6.1 µg/mL (≈ 14.9 µM). With `O=C(O)CN1C(=O)c2cccc3c(Br)ccc1c23` the solubility kinetic was > 45.9 µg/mL. Work on `COC(=O)Cc1c(C)nc(SCc2ccccc2)[nH]c1=O` yielded a solubility kinetic of 16.4 µg/mL (≈ 53.9 µM). With `CNC(=O)COC(=O)c1ccc(Cl)c(S(N)(=O)=O)c1` the solubility kinetic was > 46 µg/mL. In the case of `Cc1cccc(Nc2nnc(SCC(=O)NCC3CCCO3)s2)c1C` (stereo not given), the solubility kinetic is reported as > 56.8 µg/mL. With `Cn1c(N)c(C(=O)COc2ccc(C#N)cc2)c(=O)n(C)c1=O` the solubility kinetic was 9.4 µg/mL (≈ 29.9 µM). For `CC1CN(C(=S)Nc2cccc(Cl)c2Cl)CC(C)O1` (stereo not given), the solubility kinetic was 18.9 µg/mL (≈ 59.2 µM). `C=CCn1cccc(C(=O)Nc2ccc(OC)c(Cl)c2)c1=O` showed a solubility kinetic of 1.5 µg/mL (≈ 4.71 µM). `Cc1noc(NC(=O)c2ccc(Cl)cc2)c1Cl` gave a solubility kinetic of 28.2 µg/mL (≈ 104 µM). In the case of `O=C(C(=O)N1CCCC1)c1c[nH]c2ccccc12`, the solubility kinetic is reported as > 36.3 µg/mL. For `O=C(c1ccccc1Br)N1CCc2c([nH]c3ccccc23)C1`, the solubility kinetic was 14.9 µg/mL (≈ 41.9 µM). With `COc1ccc(/C=C/C(=O)NCCN2CCOCC2)cc1OC` the solubility kinetic was > 48.1 µg/mL. With `Cc1nc(Cl)c(C#N)c2c1CCCC2` the solubility kinetic was 17.5 µg/mL (≈ 84.7 µM). In the case of `CC(=O)N(Cc1ccccc1)c1c(N)nc(N)[nH]c1=O`, the solubility kinetic is reported as > 41 µg/mL. In the case of `CC1CC(CCN)(c2ccccc2)C(C)CN1C.Cl` (stereo not given), the solubility kinetic is reported as > 47.9 µg/mL. Work on `COc1ccc(N2C(=O)C(F)(F)C2c2ccccc2F)cc1` (stereo not given) yielded a solubility kinetic of 0.8 µg/mL (≈ 2.6 µM). For `Cc1c(NS(=O)(=O)c2ccc(N)cc2)c(=O)n(-c2ccccc2)n1C`, the solubility kinetic was > 53.8 µg/mL. Work on `O=[N+]([O-])c1ccc(Oc2ccc(Oc3ccc(C(F)(F)F)cn3)cc2)nc1` yielded a solubility kinetic of 0.3 µg/mL (≈ 0.795 µM). In the case of `CCn1cc(CCCC(=O)NCc2cccnc2)c2ccccc21`, the solubility kinetic is reported as > 48.2 µg/mL. In the case of `O=C(O)C(=O)O.c1ccc(OCCN2CCOCC2)cc1`, the solubility kinetic is reported as > 44.6 µg/mL. With `CSc1ccccc1NC(=O)c1ccc2c(c1)CCN2S(C)(=O)=O` the solubility kinetic was 9.1 µg/mL (≈ 25.1 µM). `S=C(NCc1ccco1)Nc1ccc(Br)cn1` gave a solubility kinetic of 5 µg/mL (≈ 16 µM). With `CCCC(=O)N1CCC(Cc2ccccc2)CC1` the solubility kinetic was > 36.8 µg/mL. With `CC(NC(=O)c1ccc(Br)o1)C1CC2CCC1C2` (stereo not given) the solubility kinetic was 29.3 µg/mL (≈ 93.8 µM). For `NS(=O)(=O)c1ccc(CCNC(=O)c2ccc(Cl)nc2)cc1`, the solubility kinetic was > 51 µg/mL. With `COc1ccccc1NC(=O)c1ccc[n+]([O-])c1` the solubility kinetic was > 36.6 µg/mL. For `CCN1C(=O)C(=O)N(CC(=O)N(C)CC(=O)Nc2ccccc2C(F)(F)F)C1=O`, the solubility kinetic was > 62.1 µg/mL.
